Assays:
[1] = Optical characteristics: absorption and fluorescence spectrum at each pH; type: physicochemical; details: 10 mM phosphate buffer, pH 2 to 11, 1 μM probe, 1% DMSO, excitation 490 nm; neutral condition
Experimental: The absorption spectrum and fluorescence spectrum of Compound 19 at each pH were each measured. Specifically, a measurement solution was prepared by adding a solution (0.1 mM) of Compound 19 in DMSO to a 10 mM phosphate buffer at each pH in the pH range of from 2 to 11 so that the final probe concentration became 1 μM, and the final DMSO concentration became 1%. The fluorescence spectrum of the measurement solution was measured at an excitation wavelength of 490 nm.

[2] = biological target: T1, calpain-1 from human erythrocytes (Homo sapiens, UniProt P07384); experiment: Fluorescence assay with calpain-1; type: biochemical; details: 10 μM probe, 17.4 U/mL calpain-1, 5 mM CaCl2, 37° C., FIG. 4
T1 construct: calpain-1 from human erythrocytes; purchased Merck Millipore 208713; host or cells: human erythrocytes (natural source)
T1 sequence (P07384 1-714): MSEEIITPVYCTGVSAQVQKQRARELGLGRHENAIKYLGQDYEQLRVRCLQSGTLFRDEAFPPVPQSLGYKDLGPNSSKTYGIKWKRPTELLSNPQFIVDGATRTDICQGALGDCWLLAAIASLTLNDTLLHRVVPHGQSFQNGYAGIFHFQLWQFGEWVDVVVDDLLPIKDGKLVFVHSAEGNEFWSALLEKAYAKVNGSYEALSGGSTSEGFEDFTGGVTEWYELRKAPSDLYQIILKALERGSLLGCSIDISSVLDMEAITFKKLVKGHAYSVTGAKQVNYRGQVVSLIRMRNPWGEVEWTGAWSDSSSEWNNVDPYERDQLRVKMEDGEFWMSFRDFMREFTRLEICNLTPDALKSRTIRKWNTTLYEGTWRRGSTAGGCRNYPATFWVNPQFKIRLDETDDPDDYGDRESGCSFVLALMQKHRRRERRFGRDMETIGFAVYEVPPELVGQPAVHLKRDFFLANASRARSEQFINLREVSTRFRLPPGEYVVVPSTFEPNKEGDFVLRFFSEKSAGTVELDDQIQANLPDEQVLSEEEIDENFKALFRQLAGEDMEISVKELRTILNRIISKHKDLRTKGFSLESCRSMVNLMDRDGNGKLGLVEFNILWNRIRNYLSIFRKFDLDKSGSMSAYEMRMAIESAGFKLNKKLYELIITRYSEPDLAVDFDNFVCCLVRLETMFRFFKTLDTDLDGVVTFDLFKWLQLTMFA
T1 sequence (P04632 1-268 partner): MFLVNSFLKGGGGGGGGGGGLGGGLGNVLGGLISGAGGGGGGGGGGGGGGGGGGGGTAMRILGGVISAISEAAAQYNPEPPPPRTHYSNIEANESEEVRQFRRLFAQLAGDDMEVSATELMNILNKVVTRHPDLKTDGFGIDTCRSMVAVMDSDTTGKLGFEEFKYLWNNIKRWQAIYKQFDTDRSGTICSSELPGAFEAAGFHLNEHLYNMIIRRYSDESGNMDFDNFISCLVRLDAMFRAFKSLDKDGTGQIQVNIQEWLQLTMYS
Experimental: The fluorescence assays of Compound 19 and Compound 16 with time were performed. Specifically, 17.4 U/mL of calpain-1 and 5 mM CaCl2 were added to a 50 mM TRIS buffer (pH: 7.4, 2 mM EGTA, 2 mM DTE) containing 10 μM of each of the synthesized fluorescent probes to perform an enzyme reaction at 37° C. Each of the compounds to which calpain-1 and CaCl2 were not added was similarly subjected as a negative control to the measurement.
The fluorescence assays of Compounds 16 to 36 were similarly performed. 50 Units per milliliter (Compounds 16 and 19 to 25) or 17.4 U/mL (Compounds 16 to 18 and 26 to 36) of calpain-1 and 5 mM CaCl2 were added to a 50 mM TRIS buffer (pH: 7.4, 2 mM EGTA, 2 mM DTE) containing 10 μM of each of the synthesized fluorescent probes to perform an enzyme reaction at 37° C.
Next, similar fluorescence assays of Compounds 37, 42, 45, 48, 51, 53, 55, 57, and 59 with calpain-1 were performed. Specifically, 17.4 U/mL of calpain-1 and 5 mM CaCl2 were added to a 50 mM TRIS buffer (pH: 7.4, 2 mM EGTA, 2 mM DTE) containing 10 μM of each of the synthesized fluorescent probes to perform an enzyme reaction at 37° C. Each of the compounds to which calpain-1 was not added was used as a control.
To evaluate an influence of a R^12-L-O— group on the reactivity of each of compounds having the same amino acids with calpain-1, the fluorescence assays of Compounds 37 to 66 with calpain-1 were performed in accordance with the above-mentioned method. Specifically, 17.4 U/mL of calpain-1 and 5 mM CaCl2 were added to a 50 mM TRIS buffer (pH: 7.4, 2 mM EGTA, 2 mM DTE) containing 10 μM of each of the synthesized fluorescent probes to perform an enzyme reaction at 37° C., followed by the measurement of an increase in fluorescence intensity of each of the compounds 10 minutes after the addition of calpain-1.

[3] = system: iPS cell-derived three-dimensional stereoscopic retinal tissue; experiment: Glutamic acid injury model of iPS cell-derived three-dimensional stereoscopic retinal tissue; type: cell-based, human
Experimental: Next, to confirm a reaction under conditions closer to those of a living organism, the iPS cell-derived three-dimensional stereoscopic retinal tissue on the 60th day of the differentiation induction was left at rest in a 24-well plate containing 1 mL of a reaction medium (obtained by adding CaCl2 (final concentration: 2.4 mM) and HEPES (final concentration: 20 mM) to a HBSS solution) in each well (n=5). The tissue was washed with 1 mL of the reaction medium twice, and glutamic acid was added thereto so that its final concentration became 0 μM, 300 μM, or 1 mM, followed by a reaction for 1 hour. Compound 19 was added to the resultant 1 hour after the addition of glutamic acid so that its final concentration became 0 μM, 0.25 μM, 1.2 μM, or 5.0 μM, and an image of the fluorescence of the mixture was taken with a fluorescence microscope (ZEISS Axio Vert.A1) (a RGB mode (lower stage) and a B/W mode (upper stage)) 1 hour thereafter. In all image-taking operations, an exposure time was fixed to 200 ms. The results of groups in which the final concentrations of glutamic acid are 0 μM, 300 μM, and 1 mM are shown in FIG. 25, FIG. 26, and FIG. 27, respectively. […] In addition, a graphical representation of an average calculated from fluorescence intensities in the images taken in the B/W mode (n=3) is shown in FIG. 28. […] In addition, results obtained by comparing and examining the fluorescence intensities of Compound 19 and Compound 16 are shown in FIG. 29.

absorption spectrum and fluorescence spectrum at each pH [1]: mainly colorless and nonfluorescent
Structure (SMILES): COCC(=O)N[C@@H](CC(C)C)C(=O)N[C@@H](CCSC)C(=O)Nc1ccc2c(c1)Oc1cc(N)ccc1C21OCc2ccccc21 (stereo partly drawn) [Compound 19]
change in fluorescence intensity with time by calpain-1 ([2]; excitation 475 nm, fluorescence 500-550 nm): functioned as a fluorescent probe for calpain-1 | reactivity with calpain-1 compared with Compound 16 (fluorescence with time) [2]: further improved in reactivity with calpain-1 | fluorescence images of retinal tissue ([3]; glutamic acid 300 μM or 1 mM, probe 0, 0.25, 1.2 or 5.0 μM, 1 hour, FIG. 26, FIG. 27): enhancement of fluorescence expression was observed in proportion to the concentration of Compound 19 | fluorescence intensity compared with Compound 16 ([3]; glutamic acid 1 mM, probe 0.25 μM, 1.2 μM, or 5.0 μM, FIG. 29): stronger fluorescence than that of Compound 16 | average fluorescence intensity of retinal tissue (B/W mode) ([3]; same glutamic acid concentration (0 μM, 300 μM, 1 mM), probe 0 to 5.0 μM, FIG. 28): fluorescence was strongly observed in a manner dependent on the concentration of Compound 19
